Structures can show the parent of a compound that is named as a salt.
Key:
[1] = system: Her2; experiment: Degradation of Her2 in BT-474 cells, Method 1 (Western blot); type: cell-based, human; conditions: 0.5 μM, overnight
Procedure: Human high-Her2 breast carcinoma BT474 (HTB-20), SK-BR-3 (HTB-30) and MCF-7 breast carcinoma (HTB-22) from American Type Culture Collection, VA, USA were grown in Dulbecco's modified Eagle's medium with 4 mM L-glutamine and antibiotics ([…] penicillin and 100 μg/ml streptomycine; GibcoBRL). To obtain exponential cell growth, cells were trypsinized, counted and seeded at a cell density of 0.5×10^6 cells/ml regularly, every 3 days. All experiments were performed on day 1 after cell passage.
BT-474 cells are treated with 0.5 μM, 2 μM, or 5 μM of 17AAG (a positive control) or 0.5 μM, 2 μM, or 5 μM of a compound of the invention overnight in DMEM medium. After treatment, each cytoplasmic sample is prepared from 1×10^6 cells by incubation of cell lysis buffer (#9803, cell Signaling Technology) on ice for 10 minutes. The resulting supernatant used as the cytosol fractions is dissolved with sample buffer for SDS-PAGE and run on a SDS-PAGE gel, blotted onto a nitrocellulose membrane by using semi-dry transfer. Non-specific binding to nitrocellulose is blocked with 5% skim milk in TBS with 0.5% Tween at room temperature for 1 hour, then probed with anti-Her2/ErB2 mAb (rabbit IgG, #2242, Cell Signaling) and anti-Tubulin (T9026, Sigma) as housekeeping control protein. […]

[2] = system: Hsp90; experiment: Degradation of Her2 / inhibition of Hsp90, Method 2: MV-4-11 cell survival after 72 hours (Cell Counting Kit-8); type: cell-based, human; conditions: Table 4, IC50 range, MV-4-11 cells
Procedure: MV-4-11 cells (20,000 cells/well) were cultured in 96-well plates and maintained at 37° C. for several hours. The cells were treated with a compound of the invention or 17AAG (a positive control) at various concentrations and incubated at 37° C. for 72 hours. Cell survival was measured with Cell Counting Kit-8 (Dojindo Laboratories, Cat. # CK04). […] Tables 4-6: IC50 range of compounds of the invention for inhibition of Hsp90

SMILES	degradation of Her2 [1]	IC50 [2] [nM]
C=CCNC1=C2C[C@@H](C)C[C@H](OC)[C@H](O)[C@@H](C)/C=C(\C)[C@H](OC(N)=O)[C@@H](OC)/C=C\C=C(/C)C(=O)NC(=CC1=O)C2=O [Compound 17AAG, 17-allylamino-17-demethoxygeldanamycin]	partial degradation	–
CC(=O)N1Cc2ccc(-n3c(O)nnc3-c3cc(C(C)C)c(O)cc3O)cc2C1 [Compound 23, 1-(5-(3-(2,4-dihydroxy-5-isopropylphenyl)-5-hydroxy-4H-1,2,4-triazol-4-yl)isoindolin-2-yl)ethanone]	–	< 500
CC(C)c1cc(-c2nnc(O)n2-c2ccc3c(c2)CCN3C(=O)C2CCC(N)CC2)c(O)cc1O (stereo not drawn) [Compound 39, (4-Aminocyclohexyl)(5-(3-(2,4-dihydroxy-5-isopropylphenyl)-5-hydroxy-4H-1,2,4-triazol-4-yl)indolin-1-yl)methanone hydrochloride]	–	< 1000
